Measurements published in paper PMC3914206.

Key:
panel of 442 kinases [1] = target: T1, panel of 442 kinases (Homo sapiens, UniProt Q9UHD2); type: binding; design: KINOMEscan: ABL1(F317L)-phosphorylated / KINOMEscan: ABL1(H396P)-nonphosphorylated / KINOMEscan: ABL1(H396P)-phosphorylated / KINOMEscan: ABL1(M351T)-phosphorylated / KINOMEscan: ABL1(T315I)-phosphorylated / KINOMEscan: ABL1-nonphosphorylated / KINOMEscan: ABL1-phosphorylated / KINOMEscan: ACVR2A / KINOMEscan: ACVR2B / KINOMEscan: ADCK3 / KINOMEscan: ADCK4 / KINOMEscan: AKT1 / KINOMEscan: AKT3 / KINOMEscan: ALK / KINOMEscan: ARK5 / KINOMEscan: AURKA / KINOMEscan: AURKC / KINOMEscan: BIKE / KINOMEscan: BMPR1A / KINOMEscan: BMPR1B / KINOMEscan: BMX / KINOMEscan: BRK / KINOMEscan: BRSK1 / KINOMEscan: BRSK2 / KINOMEscan: CAMK1 / KINOMEscan: CAMK1D / KINOMEscan: CAMK1G / KINOMEscan: CAMK2A / KINOMEscan: CAMK2B / KINOMEscan: AAK1 / KINOMEscan: CAMK2D / KINOMEscan: CAMK2G / KINOMEscan: ABL1(F317I)-nonphosphorylated / KINOMEscan: ABL1(F317I)-phosphorylated / KINOMEscan: ABL1(F317L)-nonphosphorylated: unit: % Ctrl; settings: kinase TBK1; compound concentration 10 µM
T1 construct: purchased KINOMEscan
T1 sequence (Q9UHD2 1-729): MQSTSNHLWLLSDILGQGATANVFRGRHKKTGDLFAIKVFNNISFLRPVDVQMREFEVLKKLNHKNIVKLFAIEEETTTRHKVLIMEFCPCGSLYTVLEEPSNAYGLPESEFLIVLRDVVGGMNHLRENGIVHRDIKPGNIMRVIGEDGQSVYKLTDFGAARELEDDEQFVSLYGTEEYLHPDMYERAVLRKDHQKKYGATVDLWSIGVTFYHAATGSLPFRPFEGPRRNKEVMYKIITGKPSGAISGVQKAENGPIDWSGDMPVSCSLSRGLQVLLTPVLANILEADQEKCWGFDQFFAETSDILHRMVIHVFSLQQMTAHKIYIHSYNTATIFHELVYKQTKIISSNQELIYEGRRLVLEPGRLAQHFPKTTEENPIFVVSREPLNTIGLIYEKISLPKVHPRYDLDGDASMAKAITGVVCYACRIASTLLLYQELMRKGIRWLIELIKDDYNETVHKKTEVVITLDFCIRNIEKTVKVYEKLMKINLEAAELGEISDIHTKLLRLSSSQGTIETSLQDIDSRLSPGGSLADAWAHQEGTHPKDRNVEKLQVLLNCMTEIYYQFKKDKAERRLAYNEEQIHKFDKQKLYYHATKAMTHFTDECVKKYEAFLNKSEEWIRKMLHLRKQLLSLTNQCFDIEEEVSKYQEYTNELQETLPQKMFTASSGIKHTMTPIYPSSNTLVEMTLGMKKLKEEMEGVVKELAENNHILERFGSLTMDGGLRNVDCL
Excerpt: (§1) We assessed the selectivity of members of this scaffold using the KINOMEscan methodology across a near comprehensive panel of 442 kinases [[18,27]].

panel of 442 kinases [2] = target: T2, panel of 442 kinases (Homo sapiens, UniProt Q8NI60); type: binding; design: KINOMEscan: ABL1(F317L)-phosphorylated / KINOMEscan: ABL1(H396P)-nonphosphorylated / KINOMEscan: ABL1(H396P)-phosphorylated / KINOMEscan: ABL1(M351T)-phosphorylated / KINOMEscan: ABL1(T315I)-phosphorylated / KINOMEscan: ABL1-nonphosphorylated / KINOMEscan: ABL1-phosphorylated / KINOMEscan: ACVR2A / KINOMEscan: ACVR2B / KINOMEscan: ADCK3 / KINOMEscan: ADCK4 / KINOMEscan: AKT1 / KINOMEscan: AKT3 / KINOMEscan: ALK / KINOMEscan: ARK5 / KINOMEscan: AURKA / KINOMEscan: AURKC / KINOMEscan: BIKE / KINOMEscan: BMPR1A / KINOMEscan: BMPR1B / KINOMEscan: BMX / KINOMEscan: BRK / KINOMEscan: BRSK1 / KINOMEscan: BRSK2 / KINOMEscan: CAMK1 / KINOMEscan: CAMK1D / KINOMEscan: CAMK1G / KINOMEscan: CAMK2A / KINOMEscan: CAMK2B / KINOMEscan: AAK1 / KINOMEscan: CAMK2D / KINOMEscan: CAMK2G / KINOMEscan: ABL1(F317I)-nonphosphorylated / KINOMEscan: ABL1(F317I)-phosphorylated / KINOMEscan: ABL1(F317L)-nonphosphorylated: unit: % Ctrl; settings: Compound Concentration 10 µM
T2 construct: purchased KINOMEscan
Excerpt: as §1

T2 sequence (Q8NI60 163-647): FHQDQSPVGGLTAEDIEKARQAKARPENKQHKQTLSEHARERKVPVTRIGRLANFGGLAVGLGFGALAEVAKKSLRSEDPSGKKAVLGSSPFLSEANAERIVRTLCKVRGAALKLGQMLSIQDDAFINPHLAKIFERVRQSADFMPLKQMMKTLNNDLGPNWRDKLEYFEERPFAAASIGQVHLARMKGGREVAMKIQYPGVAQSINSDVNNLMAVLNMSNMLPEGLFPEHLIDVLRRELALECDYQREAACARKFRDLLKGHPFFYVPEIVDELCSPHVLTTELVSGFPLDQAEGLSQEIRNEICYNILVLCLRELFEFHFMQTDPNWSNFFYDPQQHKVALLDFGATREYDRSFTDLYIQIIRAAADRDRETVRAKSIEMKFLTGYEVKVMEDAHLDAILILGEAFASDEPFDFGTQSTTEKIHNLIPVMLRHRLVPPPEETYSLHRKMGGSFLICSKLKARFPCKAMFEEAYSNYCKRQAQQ

SMILES	% Ctrl, TBK1 (panel of 442 kinases [1])	KINOMEscan: ADCK3 (panel of 442 kinases [2])
COc1cc(C(=O)N2CCC(N3CCN(C)CC3)CC2)ccc1Nc1ncc2c(n1)N(C)c1ccccc1C(=O)N2C [15 (LRRK2-IN-1)]	97 % Ctrl	71
COc1cc(C(=O)N2CCC(N3CCN(C)CC3)CC2)ccc1Nc1ncc2c(n1)N1CCc3cccc(c31)C(=O)N2C [Compound 24]	98 % Ctrl	56
COc1cc(C(=O)N2CCC(N3CCN(C)CC3)CC2)ccc1Nc1ncc2c(n1)N(C1CCCC1)c1ccccc1C(=O)N2C [Compound 25, 11-cyclopentyl-2-((2-methoxy-4-(4-(4-methylpiperazin-1-yl)piperidine-1-carbonyl)phenyl)amino)-5-methyl-5H-benzo[e]pyrimido[5,4-b][1,4]diazepin-6(11H)-one]	100 % Ctrl	61
CCOc1cc(C(=O)N2CCC(N3CCN(C)CC3)CC2)ccc1Nc1ncc2c(n1)N(C1CCCC1)c1ccccc1C(=O)N2C [Compound 26]	100 % Ctrl	59
